Patent publication US7056948B2, “Use of odor reducing and cross-adapting agents to reduce animal waste malodors” (Monell Chemical Senses Center, priority 2000, dated 2006)

Columns and labels:
[1] = Initial olfactory evaluation by judges of swine slurry treated with a single odor-reducing or cross-adapting agent; conditions: initial olfactory evaluations by several judges; 1-10% by weight
Excerpt: We attempted amelioration of odor from swine slurry. Swine slurry is a highly malodorous aqueous mixture of pig feces, urine, body secretions and spent feed. Each concentration was mixed with 1 gm of untreated swine slurry. Untreated swine slurry served as a control.

[2] = cited from earlier work

## chlorophyllin copper complex [CCC]
[1]
  suppression of the stronger malodor notes in swine slurry: appeared to suppress the stronger malodor notes
[2]; 100-200 mg doses, after the first week of treatment
  reduction in malodor in patients with urinary and fecal incontinence: marked reduction in malodor
[2]; Chernomorsky et al.
  dosages safely used: up to 800 mg/day
[2]; oral, 100-200 mg daily
  control of malodors in colostomy patients: sufficient to control malodors
  side effects in colostomy patients: without undesirable side effects

## bismuth subgallate [BiG]
[1]
  suppression of the stronger malodor notes in swine slurry: appeared to suppress the stronger malodor notes
